Assay results: ChEMBL document CHEMBL3832761, “MMV Pathogen Box Bioactivity Data” (2017)
Converted amounts (≈) assume the structure as drawn.

Experiments:
Plasmodium falciparum [1] = assay: Antimalarial activity: Asexual Blood Stage Plasmodium falciparum 3D7 IC50 (uM); type: functional, organism-based
Plasmodium falciparum [2] = assay: Antimalarial activity: Asexual Blood Stage Plasmodium falciparum Dd2 IC50 (uM); type: functional, organism-based
Plasmodium falciparum [3] = assay: Antimalarial activity: Gametocytes Plasmodium falciparum NF54 Gametocytes Stage V IC50 (uM); type: functional, organism-based
HepG2 [4] = assay: HepG2 inhibition at 10 uM (%) Cytotoxicity; type: functional; details: Homo sapiens
Plasmodium falciparum [5] = assay: Antimalarial activity: Asexual Blood Stage Plasmodium falciparum W2 IC50 (uM); type: functional, organism-based
Plasmodium berghei [6] = assay: Antimalarial activity: Liver Stage Plasmodium berghei sporozoite Luciferase assay: inhibition at 10 uM (%); type: functional
Plasmodium berghei [7] = assay: Antimalarial activity: Liver Stage Plasmodium berghei sporozoite Luciferase assay IC50 (uM); type: functional, organism-based
Plasmodium falciparum [8] = assay: Antimalarial activity: Gametocytes Plasmodium falciparum NF54 Gametocytes Stage V: inhibition at 10 uM (%); type: functional
HepG2 [9] = assay: Cytotoxicity data HepG2 CC20 (uM); type: functional
HepG2 [10] = assay: HepG2 CC50 (uM) Cytotoxicity; type: functional; details: Homo sapiens
[11] = test system: Mycobacterium tuberculosis; assay: AntiMycobacterium tuberculosis activity Non-Replicating form: Average MIC90 (uM); type: functional
[12] = test system: Mycobacterium tuberculosis; assay: AntiMycobacterium tuberculosis activity 1-week GAST/Fe MIC (uM); type: functional; details: 168 h
[13] = test system: Mycobacterium tuberculosis; assay: AntiMycobacterium tuberculosis activity 2-week GAST/Fe MIC (uM); type: functional; details: 336 h
[14] = test system: Mycobacterium tuberculosis; assay: AntiMycobacterium tuberculosis activity 1-week 7H9/ADC/Tw MIC (uM); type: functional; details: 168 h
[15] = test system: Mycobacterium tuberculosis; assay: AntiMycobacterium tuberculosis activity 2-week 7H9/ADC/Tw MIC (uM); type: functional; details: 336 h
[16] = test system: Mycobacterium tuberculosis; assay: AntiMycobacterium tuberculosis activity 2-week Alamar Blue 7H9/ADC/Tw MIC (uM); type: functional; details: 336 h
[17] = test system: Mycobacterium tuberculosis; assay: AntiMycobacterium tuberculosis activity 1-week 7H9/glucose/BSA/Tx MIC (uM); type: functional; details: 168 h
[18] = test system: Mycobacterium tuberculosis; assay: AntiMycobacterium tuberculosis activity 2-week 7H9/glucose/BSA/Tx MIC (uM); type: functional; details: 336 h
[19] = test system: Mycobacterium tuberculosis; assay: AntiMycobacterium tuberculosis activity 1-week 7H9/DPPC/cholesterol/BSA/Tx MIC (uM); type: functional; details: 168 h
[20] = test system: Mycobacterium tuberculosis; assay: AntiMycobacterium tuberculosis activity 2-week 7H9/DPPC/cholesterol/BSA/Tx MIC (uM); type: functional; details: 336 h
[21] = test system: Mycobacterium tuberculosis; assay: AntiMycobacterium tuberculosis activity 1-week 7H9/cholesterol/BSA/Tx MIC (uM); type: functional; details: 168 h
[22] = test system: Mycobacterium tuberculosis; assay: AntiMycobacterium tuberculosis activity 2-week Alamar Blue 7H9/cholesterol/BSA/Tx MIC (uM); type: functional; details: 336 h
[23] = test system: Mycobacterium tuberculosis; assay: (§1) AntiMycobacterium tuberculosis activity day 10 in 7H9/2.5mM butyrate/pH6/0.1mM nitrite MIC90 (uM); type: functional; details: 240 h
[24] = test system: Mycobacterium tuberculosis; assay: AntiMycobacterium tuberculosis activity day 21 in 7H9/2.5mM butyrate/pH6/0.1mM nitrite MIC90 (uM); type: functional; details: 504 h
[25] = test system: Mycobacterium tuberculosis; assay: as §1; type: functional; details: 240 h; remark: listed apart in the source
[26] = test system: Mycobacterium tuberculosis; assay: AntiMycobacterium tuberculosis activity day 21 MIC99 in 7H9/2.5mM butyrate/pH6/0.1mM nitrite MIC99 (uM); type: functional; details: 504 h
[27] = test system: Mycobacterium tuberculosis; assay: AntiMycobacterium tuberculosis activity Replicating form: Average MIC90 (uM); type: functional
HepG2 [28] = assay: HepG2 galactose CC50 (uM) Cytotoxicity; type: functional
HepG2 [29] = assay: HepG2 glucose CC50 (uM) Cytotoxicity; type: functional

CNC(=O)CNc1nc(-c2ccccn2)nc2scc(-c3ccccc3)c12
IC50 (Plasmodium falciparum [1]): > 2000 nM
IC50 (Plasmodium falciparum [2]): > 2000 nM
IC50 (Plasmodium falciparum [3]): 840 nM
inhibition at 10 µM (HepG2 [4]): 4%

Cc1ccc(NC(=O)c2nc[nH]c2C(=O)Nc2nc3ccccc3[nH]2)c(C)c1
IC50 (Plasmodium falciparum [1]): 360 nM
IC50 (Plasmodium falciparum [2]): 230 nM
IC50 (Plasmodium falciparum [5]): 320 nM
Inhibition (Plasmodium berghei [6]): 99%
IC50 (Plasmodium berghei [7]): > 10000 nM
Inhibition (Plasmodium falciparum [8]): 88%
IC50 (Plasmodium falciparum [3]): > 8300 nM
CC20 (HepG2 [9]): 8430 nM
CC50 (HepG2 [10]): > 10000 nM

COc1cccc(CC(=O)N2CCC(n3c(C)nc4ccc(F)cc43)CC2)c1
IC50 (Plasmodium falciparum [1]): 240 nM
IC50 (Plasmodium falciparum [2]): 230 nM
IC50 (Plasmodium falciparum [5]): 250 nM
Inhibition (Plasmodium berghei [6]): 38%
Inhibition (Plasmodium falciparum [8]): 72%
IC50 (Plasmodium falciparum [3]): 310 nM
CC20 (HepG2 [9]): >80000 nM
inhibition at 10 µM (HepG2 [4]): 0%

CCc1ccc(C(NCc2nc(N)nc(N(C)C)n2)C(C)C)cc1 (stereo not given)
IC50 (Plasmodium falciparum [1]): > 2000 nM
IC50 (Plasmodium falciparum [2]): > 2000 nM
IC50 (Plasmodium falciparum [3]): 80 nM

CCCn1c(NC(=O)c2ccc3ccccc3n2)nc2ccccc21
IC50 (Plasmodium falciparum [1]): > 2000 nM
IC50 (Plasmodium falciparum [2]): > 2000 nM
IC50 (Plasmodium falciparum [3]): 560 nM
inhibition at 10 µM (HepG2 [4]): 24%

Nc1nccc2ccc(-c3ccc4nccn4c3)cc12
IC50 (Plasmodium falciparum [1]): 160 nM
IC50 (Plasmodium falciparum [2]): 260 nM
IC50 (Plasmodium falciparum [5]): 370 nM
Inhibition (Plasmodium berghei [6]): 56%
Inhibition (Plasmodium falciparum [8]): 95%
IC50 (Plasmodium falciparum [3]): 400 nM
CC20 (HepG2 [9]): 5410 nM
inhibition at 10 µM (HepG2 [4]): 50%

CCOC(=O)c1c(NC(=O)c2c(F)c(F)c(F)c(F)c2F)sc(C(N)=O)c1C
MIC90 [11]: 0.23 µM (≈ 0.0971 µg/mL)
MIC [12]: 0.07 µM (≈ 0.0296 µg/mL)
MIC [13]: 0.1 µM (≈ 0.0422 µg/mL)
MIC [14]: 0.1 µM (≈ 0.0422 µg/mL)
MIC [15]: 0.39 µM (≈ 0.165 µg/mL)
MIC [16]: 0.39 µM (≈ 0.165 µg/mL)
MIC [17]: 0.1 µM (≈ 0.0422 µg/mL)
MIC [18]: 0.39 µM (≈ 0.165 µg/mL)
MIC [19]: 0.05 µM (≈ 0.0211 µg/mL)
MIC [20]: 0.3 µM (≈ 0.127 µg/mL)
MIC [21]: 0.07 µM (≈ 0.0296 µg/mL)
MIC [22]: 0.39 µM (≈ 0.165 µg/mL)
MIC90 [23]: 0.78 µM (≈ 0.329 µg/mL)
MIC90 [24]: 6.25 µM (≈ 2.64 µg/mL)
MIC90 [25]: > 50 µM
MIC [26]: > 50 µM
MIC90 [27]: < 0.25 µM
CC50 (HepG2 [10]): 4200 nM
CC50 (HepG2 [28]): > 50000 nM
CC50 (HepG2 [28]; Homo sapiens, HepG2): 48800 nM
CC50 (HepG2 [29]): 23500 nM
CC50 (HepG2 [29]; Homo sapiens, HepG2): 31700 nM

CCNC(=O)C(C)Nc1nc(-c2cccnc2)nc2sc(C)c(C)c12 (stereo not given)
IC50 (Plasmodium falciparum [1]): > 2000 nM
IC50 (Plasmodium falciparum [2]): > 2000 nM
IC50 (Plasmodium falciparum [3]): 610 nM
inhibition at 10 µM (HepG2 [4]): 0%

O=C(Nc1nc(-c2ccccn2)cs1)C1CC1c1ccccc1F (stereo not given)
IC50 (Plasmodium falciparum [1]): > 2000 nM
IC50 (Plasmodium falciparum [2]): > 2000 nM
IC50 (Plasmodium falciparum [3]): 520 nM
inhibition at 10 µM (HepG2 [4]): 25%

c1ccc(-c2cc(N3CCCCC3)c3ccccc3n2)nc1
IC50 (Plasmodium falciparum [1]): > 2000 nM
IC50 (Plasmodium falciparum [2]): > 2000 nM
Inhibition (Plasmodium berghei [6]): 92%
IC50 (Plasmodium berghei [7]): 9700 nM
Inhibition (Plasmodium falciparum [8]): 93%
IC50 (Plasmodium falciparum [3]): 510 nM
CC20 (HepG2 [9]): 22900 nM
CC50 (HepG2 [10]): > 10000 nM

Cc1cc(C)nc(-n2nc(C)cc2Nc2ccccc2)n1
IC50 (Plasmodium falciparum [1]): > 2000 nM
IC50 (Plasmodium falciparum [3]): 220 nM
inhibition at 10 µM (HepG2 [4]): 7%

Cc1ccc(-c2nc(CN(Cc3ccccn3)C(C)C)cs2)o1
IC50 (Plasmodium falciparum [1]): > 2000 nM
IC50 (Plasmodium falciparum [2]): > 2000 nM
IC50 (Plasmodium falciparum [3]): 450 nM
inhibition at 10 µM (HepG2 [4]): 47%

COc1cc(CN2CCC3(C=Cc4ccccc43)CC2)cc2c1OCO2
MIC [12]: 0.6 µM (≈ 0.21 µg/mL)
MIC [13]: 0.78 µM (≈ 0.273 µg/mL)
MIC [14]: 1.2 µM (≈ 0.419 µg/mL)
MIC [15]: 0.78 µM (≈ 0.273 µg/mL)
MIC [16]: 0.78 µM (≈ 0.273 µg/mL)
MIC [17]: 2.3 µM (≈ 0.804 µg/mL)
MIC [18]: 2.3 µM (≈ 0.804 µg/mL)
MIC [19]: 1.56 µM (≈ 0.545 µg/mL)
MIC [20]: 2.3 µM (≈ 0.804 µg/mL)
MIC [21]: 1.56 µM (≈ 0.545 µg/mL)
MIC [22]: 2.3 µM (≈ 0.804 µg/mL)
MIC90 [23]: 6.25 µM (≈ 2.18 µg/mL)
MIC90 [24]: 6.25 µM (≈ 2.18 µg/mL)
MIC90 [25]: 12.5 µM (≈ 4.37 µg/mL)
MIC [26]: 12.5 µM (≈ 4.37 µg/mL)
CC50 (HepG2 [28]; Homo sapiens, HepG2): > 50000 nM
CC50 (HepG2 [29]; Homo sapiens, HepG2): > 50000 nM

CC(=O)NC[C@H]1CN(c2ccc(N3CCSCC3)c(F)c2)C(=O)O1 [SUTEZOLID]
MIC [12]: 0.2 µM (≈ 0.0707 µg/mL)
MIC [13]: 0.6 µM (≈ 0.212 µg/mL)
MIC [14]: 1.2 µM (≈ 0.424 µg/mL)
MIC [15]: 1.2 µM (≈ 0.424 µg/mL)
MIC [16]: 0.78 µM (≈ 0.276 µg/mL)
MIC [17]: 0.6 µM (≈ 0.212 µg/mL)
MIC [18]: 1.2 µM (≈ 0.424 µg/mL)
MIC [19]: 0.6 µM (≈ 0.212 µg/mL)
MIC [20]: 1.2 µM (≈ 0.424 µg/mL)
MIC [21]: 0.39 µM (≈ 0.138 µg/mL)
MIC [22]: 0.78 µM (≈ 0.276 µg/mL)
MIC90 [23]: 0.19 µM (≈ 0.0671 µg/mL)
MIC90 [24]: 0.39 µM (≈ 0.138 µg/mL)
MIC90 [25]: 0.39 µM (≈ 0.138 µg/mL)
MIC [26]: 0.78 µM (≈ 0.276 µg/mL)
CC50 (HepG2 [28]; Homo sapiens, HepG2): > 50000 nM
CC50 (HepG2 [29]; Homo sapiens, HepG2): > 50000 nM
